In general, IC50 refers to the concentration that inhibits the measured activity by half.

The text below walks through data of publication PMC13492380, “Dissecting Structural and Functional Determinants of Microtubules Stabilization through Guided Chemical Modulation” (Journal of Medicinal Chemistry, 2026).

Read-outs that look alike come from different tables or passages of the source. A value given as a limit tells only on which side of the number the result lay.

Experiment [1] relates to Kb-3.1 cells (HeLa subclone). Nature of the experiment: MTT cytotoxicity assay, Kb-3.1. The class given is cell-based. The following applies: Homo sapiens, read-out: Cytotoxicity IC50 Kb-3.1. The protocol:
Antiproliferative assays were performed as described.

For experiment [2], the system named is Kb-V1 cells (overexpressing PgP). Nature of the experiment: MTT cytotoxicity assay, Kb-V1. The following applies: for IC50: Homo sapiens, KB-V1, 48 h, read-out: Cytotoxicity IC50 Kb-V1; for R/S (resistant to sensitive ratio): IC50 Kb-V1 / IC50 Kb-3.1. (In general: Tetrazolium dyes change colour on reduction, which living cells bring about.)
Experimental: (§1) Antiproliferative assays were performed as described. […] Then, increasing concentrations of drugs were added and incubated for 48 h prior to the reaction with the MTT solution. IC50 values were obtained by fitting the experimental data (absorbance at 570/690 nm) to a four-parameter logistic curve using SigmaPlot 14.5 software package (Systat Software, Inc., San Jose, CA, USA) and IC50 values were expressed as mean ± SEM from three independent experiments, each performed in duplicate.
The subject of experiment [3] is tubulin. The experiment in a line: Tubulin polymerization time course (absorbance 350 nm). It is filed as biochemical, calf. To be noted: 25 μM tubulin in PEDTA buffer, 35 μM compound, 37 °C. How it is done: Purified calf brain tubulin and chemicals were obtained as previously described. Tau-mCherry was expressed and purified as described previously. Human Kif5B-EGFP (amino acids 1-905), containing a C terminal fluorescent-tag followed by a 3C protease cleavage site and a 6 × His-tag was expressed and purified as in with some modifications. Prior to purification, cells were resuspended in 1:1 ratio of lysis buffer (30 mM HEPES pH 7.5, 300 mM NaCl, 0.5 mM ATP, 5% glycerol, 20 mM imidazole, […]) supplemented with 1× Protease inhibitor cocktail and benzonase to the final concentration of 25 units/ml. Cells were homogenized by repeated pipetting. Cells were lysed by spinning for 45 min at 40,000 rpm in 45 Ti fixed-angle rotor (Beckman Coulter) at 4 °C. The supernatant was incubated with pre-equilibrated HisPUR NiNTA agarose resin (Thermo Fisher Scientific) for 1 h in a tightly closed gravity-flow column (Thermo Fisher Scientific) at 4 °C by slowly rotating. Subsequently, the resin was washed once lysis buffer and then with buffer B (30 mM HEPES pH 7.5, 300 mM NaCl, 0.5 mM ATP, 5% glycerol, 30 mM imidazole, […]). The protein was eluted from the resin after an overnight cleavage of the 6 × His-tag with 3C HRV protease in lysis buffer at 4 °C. The eluted protein was further purified via size exclusion chromatography on Superdex 200 10/300 GL column equilibrated in exclusion buffer (30 mM HEPES pH 7.5, 300 mM NaCl, 0.5 mM ATP, 5% glycerol, […]). Peak fractions were analyzed via SDS-PAGE, pooled and the protein was concentrated with Amicon Ultra-15 Centrifugal Filter tubes (Millipore). Purified proteins were aliquoted, snap-frozen in liquid N2, and stored at −80 °C.
Tubulin polymerization assays were performed in PEDTA (10 mM NaPi, 1 mM EDTA, 0.1 mM GTP pH 7.0) or GAB (10 mM NaPi, 3.4 M glycerol, 1 mM EGTA, 0.1 mM GTP pH 6.7) buffers supplemented with 0.9 mM GTP and 4 mM MgCl2.

The test system of experiment [4] is Dynein Light Chain LC8 (retrograde transport) in SH-SY5Y cells. Nature of the experiment: Cy5-DBP dynein binding probe tracking, live-cell imaging. It is filed as cell-based, human. The following applies: for Cy5-DBP Distance, normalized to control / Cy5-DBP Speed, normalized to control: 1 μM PTX or 2.5 μM FTX2, 1a or 1b, mean ± SEM. The source says:
Building on our ability to chemically modulate MT structure, we next explored how these changes influence signaling patterns involved in MAPs interactions. Given that MTs are key players in intracellular transport – guiding organelles, vesicles and chromosomes via molecular motors like dyneins and kinesins – we assessed the impact of our compounds on transport dynamics in neuroblastoma SH-SY5Y cells. We combined live-cell imaging with previously developed tracking peptides (Figure A): Cy5-DBP, which encompasses the sequence that specifically recognizes Dynein Light Chain LC8 (retrograde transport), and Cy5-KBP, with a sequence that binds to the tetratricopeptide repeat of the kinesin-1 light chain KLC1 (anterograde transport). […] However, this was for a short incubation period (1 to 2.5 h, including imaging time) to avoid mitotic arrest or compromise cell viability. We then assessed particle behavior by measuring mean track displacement and mean track velocity.
Cy5-KBP and Cy5-DBP tracking peptides were synthesized at CIB-Margarita Salas (CSIC), following a published protocol. Briefly, the peptide chains were assembled via solid phase peptide synthesis (SPPS) using fluorenylmethyloxycarbonyl (Fmoc) as N-terminal protecting group and, subsequently labeled with the organic dye cyanine 5 (Cy5) via a maleimide–thiol reaction between the N-terminal cysteine residues of the peptides and the commercially available Cy5-maleimide. The final peptides were purified via reverse phase HPLC, dissolved in DMSO to a final 2.5 mM concentration and stored in small aliquots at −20 °C. SH-SY5Y cells were seeded into μ-Slide 8-wells ibiTreat plates (ibidi, flat polymer coverslip-bottom, tissue culture treated) at a concentration of 35,000 cells/well and incubated for 48 h at 37 °C and 5% CO2. […] After this time, the culture medium was replaced by the drug working solution containing either Cy5-KBP or Cy5-DBP, and the plate was incubated for an additional 15 min at 37 °C and 5% CO2. Then, the culture medium was replaced with drug working solution without labeled peptide and the cells were imaged using a confocal laser scanning microscope Leica TCS SP8 with a 63x oil immersion objective that included a humidified incubation chamber, a CO2 controller and a heating unit. Cy5 dye was excited at 635 nm and the fluorescence emission was collected at 645–690 nm. Images were recorded every 1.793 s for 3 min as 2-layer-z-stacks. For each condition, two to three different fields were imaged in two separate experiments.
Single-peptide trajectories were tracked with the TrackMate plugin from the Fiji package software (https://imagej.net/TrackMate). Particles with an estimated blob diameter of 1–1.5 μm were detected using the Laplacian of Gaussian (LoG) detector and linked with the Linear motion LAP tracker. Only spots that were at a maximum distance of 2 μm were linked. Trajectories with less than 6 spots were discarded since they were probably artifactual, and track mean displacement and track mean velocity were calculated and normalized to control cells. Data were further analyzed with MATLAB to perform a Mean Square Displacement (MSD) analysis to determine the mode of displacement of the peptides followed over time. Briefly, for each trajectory the MSD function was calculated and its log–log representation fitted with a linear function (log(MSD(τ)) = […] x log(τ) + C). MSD curves with an R^2 coefficient <0.8 were removed. The slope (α) of each MSD curve determines the motion type of each particle and particles were classified into: constrained particles (CM) α < 1, Brownian particles (BM) α = 1, and transported particles (TM) α > 1. Two independent experiments were performed using three biological replicates (N = 6). Statistical analyses of normalized track mean displacement and track mean velocity were performed using an unpaired t test with Welch’s correction in GraphPad Prism 8 software. […]

For experiment [5], the system named is HeLa cells. Nature of the experiment: MTT cytotoxicity assay, HeLa. It is filed as cell-based. To be noted: Homo sapiens, 48 h, read-out: Cytotoxicity IC50 HeLa.
Experimental: as §1

`CC(=O)OC1C(=O)C2(C)C(OC(=O)CCCCC(=O)OC3CCc4ccccc43)CC3OCC3(OC(C)=O)C2C(OC(=O)c2ccccc2)C2(O)CC(OC(=O)C(O)C(NC(=O)c3ccccc3)c3ccccc3)C(C)=C1C2(C)C` (stereo not drawn) [1a, 7-O-(6″-O-(2‴,3‴-Dihydroinden-1‴-yl)hexanedioyl) Paclitaxel]: the IC50 in experiment [1] (KB 3-1, 48 h) stood at 280 ± 30 nM. For the same molecule, in experiment [2], the IC50 is more than 40000 nM and the “R/S (resistant to sensitive ratio)” value is on record as more than 142. Also, in experiment [3], the Polymerization v max was 1.19 × 10^–3 min^–1. Further, in experiment [4], the “Cy5-DBP Distance, normalized to control” value is on record as 0.92 ± 0.01 and the “Cy5-DBP Speed, normalized to control” value was 0.98 ± 0.02. Further, the IC50 in experiment [5] was 180 ± 20 nM.
Regarding `COc1ccc2c(c1)CC(NC(=O)CCCCCCCC(=O)OC1CC3OCC3(OC(C)=O)C3C(OC(=O)c4ccccc4)C4(O)CC(OC(=O)C(O)C(NC(=O)c5ccccc5)c5ccccc5)C(C)=C(C(OC(C)=O)C(=O)C13C)C4(C)C)CC2` [1b, 7-O-((S)-9″-(7‴-Methoxy-1‴,2‴,3‴,4‴-tetrahydronaphthalen-2‴-yl)amino) −9″-oxononanoyl) Paclitaxel], in experiment [1] (KB 3-1, MTT, 48 h, mean ± SEM), the IC50 was 150 ± 20 nM. Moreover, in experiment [2], the IC50 was 19000 nM and the “R/S (resistant to sensitive ratio)” value is 127. The Polymerization v max in experiment [3] is listed as 1.44 × 10^–4 min^–1. In addition, in experiment [4], the “Cy5-DBP Distance, normalized to control” value worked out at 0.92 ± 0.01 and the “Cy5-DBP Speed, normalized to control” value is reported as 1.07 ± 0.01. Besides, the IC50 in experiment [5] (MTT, mean ± SEM) came to 100 ± 20 nM.
Regarding `CC(=O)O[C@H]1C(=O)[C@]2(C)[C@@H](OC(=O)[C@H](C)NC(=O)c3ccc(-c4c5cc(F)c(=O)cc-5oc5cc(O)c(F)cc45)c(C(=O)O)c3)C[C@H]3OC[C@@]3(OC(C)=O)[C@H]2[C@H](OC(=O)c2ccccc2)[C@]2(O)C[C@H](OC(=O)[C@H](O)[C@@H](NC(=O)c3ccccc3)c3ccccc3)C(C)=C1C2(C)C` [FTX2, Flutax2], the Polymerization v max in experiment [3] is 1.42 × 10^–3 min^–1. In experiment [4], the “Cy5-DBP Distance, normalized to control” value turned out to be 1.06 ± 0.02 and the “Cy5-DBP Speed, normalized to control” value is reported as 1.21 ± 0.02.
Regarding `CC(=O)O[C@H]1C(=O)[C@@]2(C)[C@H]([C@H](OC(=O)c3ccccc3)[C@]3(O)C[C@H](OC(=O)[C@H](O)[C@@H](NC(=O)c4ccccc4)c4ccccc4)C(C)=C1C3(C)C)[C@]1(OC(C)=O)CO[C@@H]1C[C@@H]2O` [PTX, Paclitaxel], the IC50 came to 2.4 ± 0.2 nM in experiment [1] (KB 3-1, MTT, 48 h, mean ± SEM) and 2700 ± 600 nM in experiment [2]. Besides, the Polymerization v max in experiment [3] is recorded as 1.25 × 10^–2 min^–1. In addition, the “reduction of Cy5-DBP particle displacement vs nontreated control cells” value in experiment [4] (1 μM PTX) is on record as “approximately 20%”.
